{"source": "paper PMC4792161", "about": "“A novel pyrazole derivative protects from ovariectomy-induced osteoporosis through the inhibition of NADPH oxidase” (Scientific Reports, 2016)", "key": {"[1]": {"molecular_target": "T1, human Nox1 (Homo sapiens, UniProt Q9Y5S8)", "T1 construct": "made in house; host or cells: transgenic Drosophila (Duox knockdown, Da-GAL4 driven UAS-hNOX1); membrane-enriched fly homogenate", "T1 sequence (Q9Y5S8 1-564)": "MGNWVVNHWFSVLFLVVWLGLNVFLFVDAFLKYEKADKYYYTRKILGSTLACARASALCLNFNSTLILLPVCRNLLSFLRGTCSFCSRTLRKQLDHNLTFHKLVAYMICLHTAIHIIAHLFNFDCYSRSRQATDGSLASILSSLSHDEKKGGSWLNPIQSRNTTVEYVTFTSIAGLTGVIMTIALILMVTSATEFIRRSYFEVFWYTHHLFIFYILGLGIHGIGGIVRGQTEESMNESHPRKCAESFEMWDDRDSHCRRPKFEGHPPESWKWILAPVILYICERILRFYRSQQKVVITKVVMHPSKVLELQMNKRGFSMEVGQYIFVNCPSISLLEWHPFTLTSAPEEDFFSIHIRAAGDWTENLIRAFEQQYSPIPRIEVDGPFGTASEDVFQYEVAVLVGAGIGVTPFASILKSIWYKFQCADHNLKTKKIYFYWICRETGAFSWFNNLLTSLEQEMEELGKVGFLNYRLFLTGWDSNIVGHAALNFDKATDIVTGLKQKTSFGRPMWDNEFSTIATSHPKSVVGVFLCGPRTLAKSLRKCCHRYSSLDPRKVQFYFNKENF", "test": "Nox inhibitor screening, Drosophila membranes over-expressing human Nox1, ROS chemiluminescence", "format": "biochemical", "settings": "hNox1 Drosophila membranes", "excerpt": "(§1) Purified Drosophila membranes expressing human Nox1, Nox2, or Nox4 were used to monitor ROS production by determining the oxidation of lucigenin, evident as chemiluminescence, in the absence or presence of chemical compound[18].\n(§2) Drosophila membranes specifically overexpressing hNox1, hNox2, and hNox4 were subjected into ROS measurement with Diogene.\n(§3) The genotypes used were human Nox1 (UAS-hNOX1/UAS-DUOX-RNAi; Da-GAL4/+), Nox2 (UAS-hNOX2/UAS-DUOX-RNAi; Da-GAL4/+) and Nox4 (UAS-hNOX4/UAS-DUOX-RNAi; Da-GAL4/+). Transgenic flies were homogenated with ice-cold PBS containing protease inhibitors and membrane-enriched human Nox1, 2, or 4 were harvested. Membranes containing human Nox1, 2, or 4 served to monitor ROS production by lucigenin chemiluminescence in the absence or presence of chemical compound[18]."}, "[2]": {"molecular_target": "T2, human Nox2 (Homo sapiens, UniProt P04839)", "T2 construct": "made in house; host or cells: transgenic Drosophila (Duox knockdown, Da-GAL4 driven UAS-hNOX2); membrane-enriched fly homogenate", "T2 sequence (P04839 2-570 limits assumed)": "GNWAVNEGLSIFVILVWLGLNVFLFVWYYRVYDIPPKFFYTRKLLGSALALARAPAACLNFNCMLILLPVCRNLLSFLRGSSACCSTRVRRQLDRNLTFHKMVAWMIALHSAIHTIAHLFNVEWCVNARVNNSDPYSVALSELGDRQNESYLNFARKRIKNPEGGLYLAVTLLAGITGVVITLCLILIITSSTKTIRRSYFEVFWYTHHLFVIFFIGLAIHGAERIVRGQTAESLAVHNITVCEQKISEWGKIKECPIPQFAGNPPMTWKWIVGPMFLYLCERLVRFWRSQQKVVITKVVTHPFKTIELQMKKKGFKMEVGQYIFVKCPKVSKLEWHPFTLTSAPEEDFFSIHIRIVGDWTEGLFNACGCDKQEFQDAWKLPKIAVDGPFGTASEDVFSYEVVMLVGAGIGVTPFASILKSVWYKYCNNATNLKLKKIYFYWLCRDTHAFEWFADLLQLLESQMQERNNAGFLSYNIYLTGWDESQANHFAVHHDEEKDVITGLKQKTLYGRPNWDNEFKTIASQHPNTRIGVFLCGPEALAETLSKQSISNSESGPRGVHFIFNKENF", "test": "Nox inhibitor screening, Drosophila membranes over-expressing human Nox2, ROS chemiluminescence", "format": "biochemical", "settings": "hNox2 Drosophila membranes", "excerpt": "as §1, §2, §3"}, "[3]": {"molecular_target": "T3, human Nox4 (Homo sapiens, UniProt Q9NPH5)", "T3 construct": "made in house; host or cells: transgenic Drosophila (Duox knockdown, Da-GAL4 driven UAS-hNOX4); membrane-enriched fly homogenate", "T3 sequence (Q9NPH5 1-578)": "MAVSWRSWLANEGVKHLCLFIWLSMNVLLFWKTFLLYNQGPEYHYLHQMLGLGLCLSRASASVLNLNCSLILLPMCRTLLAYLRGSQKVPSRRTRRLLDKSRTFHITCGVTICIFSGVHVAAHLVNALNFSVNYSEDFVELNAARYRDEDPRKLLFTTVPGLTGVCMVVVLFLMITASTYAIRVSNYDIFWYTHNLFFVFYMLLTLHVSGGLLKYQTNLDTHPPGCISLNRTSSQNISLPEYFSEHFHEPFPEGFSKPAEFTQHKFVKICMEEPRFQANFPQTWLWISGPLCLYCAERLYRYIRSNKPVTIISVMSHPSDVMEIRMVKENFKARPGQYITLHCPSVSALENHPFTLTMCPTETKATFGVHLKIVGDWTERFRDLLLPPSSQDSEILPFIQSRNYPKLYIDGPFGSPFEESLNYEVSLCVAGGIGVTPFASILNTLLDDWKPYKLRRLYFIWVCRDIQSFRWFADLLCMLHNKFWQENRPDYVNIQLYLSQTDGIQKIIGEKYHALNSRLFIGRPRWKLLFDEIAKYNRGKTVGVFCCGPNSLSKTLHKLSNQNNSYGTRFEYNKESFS", "test": "Nox inhibitor screening, Drosophila membranes over-expressing human Nox4, ROS chemiluminescence", "format": "biochemical", "settings": "hNox4 Drosophila membranes", "excerpt": "as §1, §2, §3"}, "[4]": {"molecular_target": "xanthine oxidase (Bos taurus, UniProt P80457)", "sequence (P80457 2-1332)": "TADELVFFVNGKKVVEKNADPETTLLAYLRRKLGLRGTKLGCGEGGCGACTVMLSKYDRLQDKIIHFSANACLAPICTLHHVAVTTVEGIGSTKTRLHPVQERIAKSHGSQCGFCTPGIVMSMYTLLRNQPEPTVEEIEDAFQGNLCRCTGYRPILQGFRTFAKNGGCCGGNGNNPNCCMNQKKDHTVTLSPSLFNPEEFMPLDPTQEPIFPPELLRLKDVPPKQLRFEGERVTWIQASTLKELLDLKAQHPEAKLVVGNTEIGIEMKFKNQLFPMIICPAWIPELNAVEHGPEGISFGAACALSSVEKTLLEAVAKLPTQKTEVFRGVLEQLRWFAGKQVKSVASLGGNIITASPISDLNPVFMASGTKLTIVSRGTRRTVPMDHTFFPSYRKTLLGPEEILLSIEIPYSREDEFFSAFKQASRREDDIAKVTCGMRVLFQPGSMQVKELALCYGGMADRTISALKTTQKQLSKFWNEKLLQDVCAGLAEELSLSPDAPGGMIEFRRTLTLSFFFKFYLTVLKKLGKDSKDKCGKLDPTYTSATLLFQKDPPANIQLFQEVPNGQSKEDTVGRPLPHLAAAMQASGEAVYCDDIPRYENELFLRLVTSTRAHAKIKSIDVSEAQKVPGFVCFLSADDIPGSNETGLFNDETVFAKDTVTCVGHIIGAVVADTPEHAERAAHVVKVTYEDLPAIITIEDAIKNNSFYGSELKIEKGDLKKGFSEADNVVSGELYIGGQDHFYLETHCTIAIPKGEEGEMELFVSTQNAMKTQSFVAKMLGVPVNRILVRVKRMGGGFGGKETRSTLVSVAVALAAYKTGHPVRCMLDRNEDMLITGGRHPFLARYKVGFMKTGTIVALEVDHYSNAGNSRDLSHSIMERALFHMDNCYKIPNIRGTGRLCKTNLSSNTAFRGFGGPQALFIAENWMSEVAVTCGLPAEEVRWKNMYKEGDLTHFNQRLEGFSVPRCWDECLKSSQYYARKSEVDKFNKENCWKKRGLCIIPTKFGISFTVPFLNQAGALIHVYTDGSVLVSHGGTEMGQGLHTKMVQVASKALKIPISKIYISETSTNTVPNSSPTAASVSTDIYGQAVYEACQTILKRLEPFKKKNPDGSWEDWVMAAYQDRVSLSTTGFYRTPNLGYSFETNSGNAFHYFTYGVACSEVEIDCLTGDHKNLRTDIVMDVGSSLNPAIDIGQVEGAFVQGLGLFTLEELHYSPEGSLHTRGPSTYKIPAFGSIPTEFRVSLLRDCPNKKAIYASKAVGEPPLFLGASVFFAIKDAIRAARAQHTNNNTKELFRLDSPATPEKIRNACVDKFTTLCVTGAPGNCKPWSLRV", "test": "Xanthine oxidase assay (lucigenin)", "format": "biochemical", "description": "Xanthine oxidase activity was measured by lucigenin. Reaction mixtures contained 0.1 mU xanthine oxidase, 0.25 mM Xanthine, and 0.4 mM lucigenin with the indicated inhibitor (0–20 μM). Luminescence measured over 30 min at 37 °C with luminometor (DTX800, Beckman coulter)."}, "[5]": {"molecular_target": "glucose oxidase (Aspergillus niger, UniProt P13006)", "sequence (P13006 17-605, species assumed)": "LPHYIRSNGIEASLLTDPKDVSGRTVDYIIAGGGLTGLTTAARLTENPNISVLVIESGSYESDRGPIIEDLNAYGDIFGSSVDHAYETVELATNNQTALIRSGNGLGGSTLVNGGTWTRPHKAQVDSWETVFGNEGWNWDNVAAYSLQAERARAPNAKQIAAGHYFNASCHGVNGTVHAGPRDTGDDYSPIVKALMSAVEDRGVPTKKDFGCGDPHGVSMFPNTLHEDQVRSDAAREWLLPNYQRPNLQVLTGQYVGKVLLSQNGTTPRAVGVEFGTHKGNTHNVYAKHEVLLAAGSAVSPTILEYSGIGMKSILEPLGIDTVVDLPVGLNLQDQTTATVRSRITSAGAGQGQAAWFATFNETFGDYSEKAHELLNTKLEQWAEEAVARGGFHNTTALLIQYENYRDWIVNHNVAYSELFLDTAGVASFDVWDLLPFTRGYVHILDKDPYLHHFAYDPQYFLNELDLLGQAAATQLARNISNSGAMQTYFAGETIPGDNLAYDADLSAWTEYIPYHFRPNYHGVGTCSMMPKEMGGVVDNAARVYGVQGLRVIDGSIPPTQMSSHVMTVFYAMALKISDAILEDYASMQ", "test": "Glucose oxidase assay (lucigenin)", "format": "biochemical", "description": "Glucose oxidase activity was measured by lucigenin. Reaction mixtures contained 0.75 mM glucose, 0.25 mg/ml glucose oxidase, and 0.4 mM lucigenin with the indicated inhibitor (0–20μM). Luminescence was measured over 30 min at 37 °C with luminometor (DTX800, Beckman coulter)."}, "[6]": {"test": "Pharmacokinetics after IV and oral administration to rats", "format": "in vivo", "description": "Supplementary Table S1. Pharmacokinetic parameters of Ewha-89403 following IV and oral administration at the doses of 1 mg/kg and 10 mg/kg, respectively, to rats (n=4-5) PK Parameters IV Injection Oral Administration\nAbsolute Bioavailability (BA) = 4.3 %\nSupplementary Table S2. Pharmacokinetic parameters of Ewha-18278 following IV and oral administration at the doses of 2 mg/kg and 20 mg/kg, respectively, to rats (n=5-6) […]\nAbsolute Bioavailability (BA) = 63.8 %"}}, "data": [{"smiles": "Oc1cc(-c2ccccc2)nn1-c1ccccn1", "note": "[Ewha-89403, 3-phenyl-1-(pyridin-2-yl)-1H-5-hydroxypyrazole]", "values": [{"measurement": "Ki", "setting": "[1]", "value": 1450, "unit": "nM"}, {"measurement": "Ki", "setting": "[2]", "value": 2570, "unit": "nM"}, {"measurement": "Ki", "setting": "[3]", "value": 3120, "unit": "nM"}, {"measurement": "inhibitory activity on xanthine oxidase", "setting": "[4]", "value": "no inhibitory activities"}, {"measurement": "inhibitory activity on glucose oxidase", "setting": "[5]", "value": "no inhibitory activities"}, {"measurement": "Clt", "setting": "[6]; IV 1 mg/kg", "value": "1277 ± 162.1", "unit": "mL/h"}, {"measurement": "AUC(0-inf)", "setting": "[6]; rat, in vivo, IV 1 mg/kg", "value": "418 ± 56", "unit": "ng·h/mL"}, {"measurement": "AUC(0-t)", "setting": "[6]; rat, in vivo, IV 1 mg/kg", "value": "343 ± 45", "unit": "ng·h/mL"}, {"measurement": "C0", "setting": "[6]; rat, in vivo, IV 1 mg/kg", "value": "2520 ± 837", "unit": "ng/mL"}, {"measurement": "Vd", "setting": "[6]; rat, in vivo, IV 1 mg/kg", "value": "2.64 ± 1.41", "unit": "L"}, {"measurement": "half-life", "setting": "[6]; rat, in vivo, IV 1 mg/kg", "value": "1.43 ± 0.723", "unit": "h"}, {"measurement": "bioavailability", "setting": "[6]; rat, in vivo, IV 1 mg/kg and oral 10 mg/kg, read-out: Absolute Bioavailability (BA)", "value": 4.3, "unit": "%"}, {"measurement": "AUC(0-inf)", "setting": "[6]; rat, in vivo, oral 10 mg/kg", "value": "302 ± 133", "unit": "ng·h/mL"}, {"measurement": "AUC(0-t)", "setting": "[6]; rat, in vivo, oral 10 mg/kg", "value": "149 ± 39", "unit": "ng·h/mL"}, {"measurement": "Cmax", "setting": "[6]; rat, in vivo, oral 10 mg/kg", "value": "194 ± 54", "unit": "ng/mL"}, {"measurement": "Tmax", "setting": "[6]; rat, in vivo, oral 10 mg/kg", "value": "6.12 ± 2.34", "unit": "min"}, {"measurement": "half-life", "setting": "[6]; rat, in vivo, oral 10 mg/kg", "value": "3.3 ± 2.08", "unit": "h"}]}]}
